Measurements published in doi:10.1101/2025.09.30.679521v1, “Crystallographic characterisation and development of bi-substrate inhibitors of coronavirus nsp14 methyltransferase” (biorxiv, 2025).
≈ marks a conversion by molar mass, not a printed value. Where two headings read alike, the source gives them in different places.

What was measured:
HCoV-NL63 nsp14 = HCoV-NL63 nsp14 (Human coronavirus NL63, UniProt P0C6X5); assay: RapidFire MS methyltransferase assay; type: biochemical
Text: RapidFire MS methyltransferase assay on HCoV-NL63 nsp14

human RNMT [1] = target: T1, human RNMT (Homo sapiens, UniProt O43148); assay: RNMT methyltransferase assay (Gray et al.); type: biochemical
Text: RNMT methyltransferase assay (Gray et al.) on human RNMT

HCoV-229E nsp14 = target: T2, HCoV-229E nsp14 (Human coronavirus 229E, UniProt P0C6X1); assay: RapidFire MS methyltransferase assay; type: biochemical
T2 construct: gene rep
Text: RapidFire MS methyltransferase assay on HCoV-229E nsp14

SARS-CoV-2 nsp14 = target: T3, SARS-CoV-2 nsp14 (Severe acute respiratory syndrome coronavirus 2, UniProt P0DTD1); assay: RapidFire MS methyltransferase assay; type: biochemical
T3 construct: gene rep
Text: RapidFire MS methyltransferase assay on SARS-CoV-2 nsp14

in vitro [2] = assay: in vitro; set-up: mouse liver microsomal stability; conditions: liver microsomes; Mouse liver microsomes; read-out: Mouse liver Mic T1/2 / min
Text: We initiated our structure-activity relationship (SAR) studies by investigating various replacements for the benzothiazole group, compounds 2-17, Table 1. […] Relatively flat SAR is observed across this subset of compounds, indeed a 6,5 or 6,6 aromatic system with the appropriate connectivity as compound 1 display relatively similar potencies. […] In general, the mouse microsomal clearance was rather low for this set of molecules, with no significant instabilities introduced, with perhaps the exception of compound 4. With no significant advantages in either potency or mouse microsomal clearance (Table S2) identified for this subset, the benzothiazole was taken forward into subsequent SAR studies. Table 2. Enzymatic inhibition against SARS-CoV-2 nsp14, human RNMT, CHI-logD and mouse microsomal stability.

physchem [3] = assay: physchem
physchem [4] = assay: physchem; remark: listed apart in the source
human RNMT [5] = target: T1, human RNMT; assay: biochemical; set-up: human RNMT methyltransferase inhibition
physchem [6] = assay: physchem; set-up: solubility
Text: Table 5. Selected compounds with cellular potency. The apparent EC50 values in the cytopathic effect assay are shown, along with the toxicity effect CC50

SARS-CoV-2 [7] = assay: microbe, parasite or virus in culture; set-up: species or system Vero E6; antiviral cytopathic effect assay with SARS-CoV-2 in Vero E6 cells; conditions: Severe acute respiratory syndrome coronavirus 2, Vero C1008; read-out: CPE assay EC50 /
in vitro [8] = assay: in vitro; set-up: cytotoxicity alongside the cytopathic effect assay in Vero E6 cells; conditions: african green monkey, vero e6 cells; read-out: CPE assay CC50 /
Text: This may be due to the increased rigidity of the alkene linkage and a lower entropic penalty upon binding. As a matched pair to the previously reported compounds 32 and 34, we selected potent and stable compound 33 and 40, with the same change of adenosine base, Base A, to Base B and measure the antiviral activity. […] One potential reason for this disparity may be attributed to the differing experimental conditions used in the two assays and requires further investigation. […] Therefore, consistent with the body of the literature, we observed no significant antiviral activity against SARS-CoV-2 for this class of compounds. We hypothesise that as the compounds bind in both the SAM and the RNA pocket of nsp14 and are therefore competitive with both substrates, in the cellular context there is a significant competition with intracellular SAM/SAH and the viral RNA, which is likely present at a higher concentration than used in the biochemical assay. The concentration of SAM used in the SARS-CoV-2 nsp14 assay is 1.0 µM and although measurements of SAM or SAH concentrations in Vero E6 cells haven’t been reported, others have reported intracellular concentrations of SAM of 354 µM in other cell lines.[30] The concentration of the viral RNA substrate in cellulo and increased effective concentrations from the proximity of other nsp proteins involved in viral RNA production may also play a role that is further not captured in the bioche Table 5. Selected compounds with cellular potency. The apparent EC50 values in the cytopathic effect assay are shown, along with the toxicity effect CC50

SARS-CoV-2 [9] = assay: microbe, parasite or virus in culture; set-up: species or system Vero E6; antiviral cytopathic effect assay with SARS-CoV-2 in Vero E6 cells; conditions: Severe acute respiratory syndrome coronavirus 2, Vero C1008; read-out: CPE assay EC50 /; remark: listed apart in the source
in vitro [10] = assay: in vitro; set-up: MDCK permeability; conditions: dog, MDCK
physchem [11] = assay: physchem; remark: listed apart in the source
[12] = SAM and RNA cap substrate at KM (SAM 1.0 µM), read-out: IC50

T1 sequence (O43148 whole entry): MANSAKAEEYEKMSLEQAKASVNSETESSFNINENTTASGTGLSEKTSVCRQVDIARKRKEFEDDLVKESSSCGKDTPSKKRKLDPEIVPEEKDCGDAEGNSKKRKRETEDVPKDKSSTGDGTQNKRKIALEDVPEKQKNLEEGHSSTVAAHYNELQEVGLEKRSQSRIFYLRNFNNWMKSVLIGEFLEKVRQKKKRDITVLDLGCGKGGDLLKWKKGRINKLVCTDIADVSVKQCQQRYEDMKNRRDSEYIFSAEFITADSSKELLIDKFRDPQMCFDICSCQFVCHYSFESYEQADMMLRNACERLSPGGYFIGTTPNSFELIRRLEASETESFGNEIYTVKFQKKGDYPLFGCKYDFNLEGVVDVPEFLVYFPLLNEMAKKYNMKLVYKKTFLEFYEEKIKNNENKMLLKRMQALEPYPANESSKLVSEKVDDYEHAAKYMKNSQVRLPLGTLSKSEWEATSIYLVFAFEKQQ
T2 sequence (P0C6X1 5593-6110): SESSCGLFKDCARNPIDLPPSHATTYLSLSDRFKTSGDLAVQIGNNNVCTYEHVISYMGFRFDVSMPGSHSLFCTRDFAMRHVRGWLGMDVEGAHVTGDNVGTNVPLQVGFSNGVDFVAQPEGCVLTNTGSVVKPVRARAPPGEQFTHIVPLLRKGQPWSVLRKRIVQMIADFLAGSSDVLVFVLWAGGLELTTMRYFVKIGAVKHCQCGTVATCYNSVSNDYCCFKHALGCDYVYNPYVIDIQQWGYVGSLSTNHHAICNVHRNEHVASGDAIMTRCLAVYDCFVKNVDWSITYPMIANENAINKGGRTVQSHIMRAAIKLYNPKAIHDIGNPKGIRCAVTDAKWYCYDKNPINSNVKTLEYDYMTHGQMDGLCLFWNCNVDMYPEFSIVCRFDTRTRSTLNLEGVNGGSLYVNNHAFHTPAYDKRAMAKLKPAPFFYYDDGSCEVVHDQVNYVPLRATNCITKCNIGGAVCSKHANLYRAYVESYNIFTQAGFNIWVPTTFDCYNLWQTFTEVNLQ
HCoV-NL63 nsp14, sequence (P0C6X5 5568-6085): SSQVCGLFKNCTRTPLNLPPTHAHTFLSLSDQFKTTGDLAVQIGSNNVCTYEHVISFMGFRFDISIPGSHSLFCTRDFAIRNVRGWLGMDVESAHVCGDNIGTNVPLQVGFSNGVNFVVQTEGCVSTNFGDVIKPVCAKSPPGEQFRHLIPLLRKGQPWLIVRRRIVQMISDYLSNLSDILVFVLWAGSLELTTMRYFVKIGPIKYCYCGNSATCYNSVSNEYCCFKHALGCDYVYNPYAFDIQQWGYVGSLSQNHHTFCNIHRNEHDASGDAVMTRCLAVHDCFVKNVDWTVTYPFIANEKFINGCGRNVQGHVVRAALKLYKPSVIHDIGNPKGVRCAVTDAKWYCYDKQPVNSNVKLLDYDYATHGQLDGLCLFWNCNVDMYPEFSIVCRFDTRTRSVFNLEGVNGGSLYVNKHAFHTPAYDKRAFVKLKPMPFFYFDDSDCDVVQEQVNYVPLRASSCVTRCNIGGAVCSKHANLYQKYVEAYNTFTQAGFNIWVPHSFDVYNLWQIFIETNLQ

| SMILES | IC50 (human RNMT [1]) | IC50 (SARS-CoV-2 nsp14; read-out: IC50) | half-life (in vitro [2]) | logD (physchem [3]) | logD (physchem [4]) | also measured |
| --- | --- | --- | --- | --- | --- | --- |
| Nc1ncnc2c1ncn2[C@@H]1O[C@H](CSc2nc3ccccc3s2)[C@@H](O)[C@H]1O [compound 1] | > 100000 nM | 420 ± 300 nM | > 30 min | 1.2 |  | IC50 (HCoV-NL63 nsp14; read-out: IC50): 190 ± 30 nM; IC50 (HCoV-229E nsp14; read-out: IC50): 310 ± 8 nM |
| Cc1ccc2nc(SC[C@H]3O[C@@H](n4cnc5c(N)ncnc54)[C@H](O)[C@@H]3O)sc2c1 [compound 2] | > 100000 nM |  | > 30 min | 1.6 |  | IC50 (HCoV-NL63 nsp14): 110 ± 20 nM; IC50 (HCoV-229E nsp14): 410 ± 80 nM; IC50 (SARS-CoV-2 nsp14): 260 ± 70 nM |
| CCCCCCSC[C@H]1O[C@@H](n2cnc3c(N)ncnc32)[C@H](O)[C@@H]1O [compound 4] | > 100000 nM |  | 13.2 min | 2 |  | IC50 (HCoV-NL63 nsp14): 3300 ± 300 nM; IC50 (HCoV-229E nsp14): 9000 ± 1400 nM; IC50 (SARS-CoV-2 nsp14): 6100 ± 1100 nM |
| Nc1ncnc2c1ncn2[C@@H]1O[C@H](CSc2ccc3ccccc3c2)[C@@H](O)[C@H]1O [compound 6] | > 100000 nM | 310 ± 120 nM | 26.9 min | 1.8 |  | IC50 (HCoV-NL63 nsp14; read-out: IC50): 230 ± 20 nM; IC50 (HCoV-229E nsp14; read-out: IC50): 470 ± 60 nM |
| Nc1ncnc2c1ncn2[C@@H]1O[C@H](CSc2ccc3ccccc3n2)[C@@H](O)[C@H]1O [compound 7] | > 100000 nM | 330 ± 90 nM | > 30 min | 1.3 |  | IC50 (HCoV-NL63 nsp14; read-out: IC50): 240 ± 80 nM; IC50 (HCoV-229E nsp14; read-out: IC50): 550 ± 80 nM |
| Cc1ccc2nc(SC[C@H]3O[C@@H](n4cnc5c(N)ncnc54)[C@H](O)[C@@H]3O)ccc2c1 [compound 8] | > 100000 nM |  | > 30 min | 1.7 |  | IC50 (HCoV-NL63 nsp14): 520 ± 10 nM; IC50 (HCoV-229E nsp14): 1900 ± 100 nM; IC50 (SARS-CoV-2 nsp14): 1100 ± 70 nM |
| Cc1ccc2ccc(SC[C@H]3O[C@@H](n4cnc5c(N)ncnc54)[C@H](O)[C@@H]3O)nc2c1 [compound 9] | 70500 nM |  | > 30 min | 1.7 |  | IC50 (HCoV-NL63 nsp14): 500 ± 110 nM; IC50 (HCoV-229E nsp14): 1400 ± 100 nM; IC50 (SARS-CoV-2 nsp14): 390 ± 60 nM |
| Nc1ncnc2c1ncn2[C@@H]1O[C@H](CSc2ccc3cccnc3c2)[C@@H](O)[C@H]1O [compound 10] | > 100000 nM | 360 ± 110 nM | > 30 min | 0.6 |  | IC50 (HCoV-NL63 nsp14; read-out: IC50): 170 ± 40 nM; IC50 (HCoV-229E nsp14; read-out: IC50): 580 ± 100 nM |
| CNc1ncnc2c1ncn2[C@@H]1O[C@H](CSc2nc3ccccc3s2)[C@@H](O)[C@H]1O [compound 18] |  | 2100 ± 200 nM |  |  | 1.3 |  |
| CN(C)c1ncnc2c1ncn2[C@@H]1O[C@H](CSc2nc3ccccc3s2)[C@@H](O)[C@H]1O [compound 19] |  |  |  |  | 1.8 | IC50 (SARS-CoV-2 nsp14; [12]): > 100000 nM |
| OC1C(CSc2nc3ccccc3s2)OC(n2cnc3c(NC4CCCC4)ncnc32)C1O (centres unmarked) [compound 20] |  |  |  |  | 2.5 | IC50 (SARS-CoV-2 nsp14; [12]): > 100000 nM |
| CC(C)Nc1ncnc2c1ncn2[C@@H]1O[C@H](CSc2nc3ccccc3s2)[C@@H](O)[C@H]1O [compound 21] |  | > 100000 nM |  |  | 2.1 | IC50 (human RNMT [5]): > 100000 nM |
| O[C@@H]1[C@H](O)[C@@H](CSc2nc3ccccc3s2)O[C@H]1n1cnc2c(NC3COC3)ncnc21 [compound 22] |  |  |  |  | 1.4 |  |
| Nc1ncnc2c1ncn2[C@@H]1O[C@H](COc2nc3ccccc3s2)[C@@H](O)[C@H]1O [compound 23] |  | > 100000 nM |  |  | 0.5 | IC50 (human RNMT [5]): > 100000 nM |
| Nc1ncnc2c1ncn2[C@@H]1O[C@H](CNc2nc3ccccc3s2)[C@@H](O)[C@H]1O [compound 24] | 54600 nM | > 100000 nM |  |  | 0.7 |  |
| Nc1ncnc2c1ncn2[C@@H]1O[C@H](CCc2nc3ccccc3s2)[C@@H](O)[C@H]1O [compound 25] |  | 310 ± 70 nM | > 30 min |  | 1 | IC50 (human RNMT [5]): > 100000 nM |
| Nc1ncnc2c1ncn2[C@@H]1O[C@H](CNS(=O)(=O)c2ccc3ccccc3c2)[C@@H](O)[C@H]1O [compound 32, N-[[(2R,3S,4R,5R)-5-(6-Aminopurin-9-yl)-3,4-dihydroxy-tetrahydrofuran-2-yl]methyl]naphthalene-2-sulfonamide] |  |  | > 30 min |  |  | solubility (physchem [6]): 213 µM (≈ 97.2 µg/mL); EC50 (SARS-CoV-2 [7]): > 100000 nM; CC50 (in vitro [8]): > 100000 nM |
| Nc1ncnc2c1ncn2[C@@H]1O[C@H](/C=C/c2nc3ccccc3s2)[C@@H](O)[C@H]1O [compound 33, (2R,3R,4S,5R)-2-(6-Aminopurin-9-yl)-5-[(E)-2-(1,3-benzothiazol-2-yl)vinyl]tetrahydrofuran-3,4-diol] |  |  | > 30 min |  |  | solubility (physchem [6]): 18.2 µM (≈ 7.22 µg/mL); EC50 (SARS-CoV-2 [7]): 8700 nM; CC50 (in vitro [8]): 21000 nM |
| Nc1ncnn2c([C@@H]3O[C@H](CNS(=O)(=O)c4ccc5ccccc5c4)[C@@H](O)[C@H]3O)ccc12 [compound 34, N-[[(2R,3S,4R,5S)-5-(4-Aminopyrrolo[2,1-f][1,2,4]triazin-7-yl)-3,4-dihydroxy-tetrahydrofuran-2-yl]methyl]naphthalene-2-sulfonamide] |  |  | 9.9 min |  |  | solubility (physchem [6]): 226 µM (≈ 103 µg/mL); EC50 (SARS-CoV-2 [9]): 30000 nM; CC50 (in vitro [8]): > 100000 nM |
| Nc1ncnn2c([C@@H]3O[C@H](/C=C/c4nc5ccccc5s4)[C@@H](O)[C@H]3O)ccc12 [compound 40, (2S,3R,4S,5R)-2-(4-aminopyrrolo[2,1-f][1,2,4]triazin-7-yl)-5-[(E)-2-(1,3-benzothiazol-2-yl)vinyl]tetrahydrofuran-3,4-diol] |  |  | > 30 min |  |  | solubility (physchem [6]): 4.7 µM (≈ 1.86 µg/mL); EC50 (SARS-CoV-2 [9]): > 10000 nM; CC50 (in vitro [8]): > 10000 nM |
| Nc1ncnn2c([C@@H]3O[C@H](/C=C/c4nc5ccccc5s4)[C@@H](O)[C@H]3O)ccc12 [compound 40] |  | 83 ± 100 nM |  |  |  | IC50 (HCoV-NL63 nsp14; read-out: IC50): 13 ± 6 nM; IC50 (HCoV-229E nsp14; read-out: IC50): 49 ± 1 nM; Papp (in vitro [10]): 12.8 ×10⁻⁶ cm/s; logD (physchem [11]): 1.5 |
